Measured values as given in patent publication US20220280525A1, “RAC INHIBITION AS A NOVEL THERAPEUTIC STRATEGY FOR EGFR/HER2 TARGETED THERAPY RESISTANT BREAST CANCER” (UNIVERSITY OF PUERTO RICO, priority 2021, published 2022).
Where two headings read alike, the source gives them in different places.

Key:
[1] = test system: SKBR3 therapy resistant variants; experiment: Mammosphere assay, therapy resistant SKBR3 variants; conditions: therapy resistant variants treated with gefitinib or lapatinib
[2] = test system: SKBR3 therapy sensitive cells; experiment: Caspase-Glo 3/7 apoptosis assay, therapy sensitive SKBR3 cells; type: cell-based, human; conditions: gefitinib, 48 h, vs vehicle
Procedure: (§1) FIG. 3A-3B. Apoptosis in therapy sensitive and resistant variants Apoptosis in therapy sensitive and resistant SKBR3 cell variants was detected by a Caspase-Glo 3/7 Assay. (A) Fold change in Caspase 3/7 activity in the therapy sensitive SKBR3 cell line following Gef or Lap treatment for 48 h compared to the vehicle controls. (B) Fold change in caspase 3/7 activity in the therapy resistant cell lines following treatment compared to non-treated cells. N=3±SEM, *=p≤0.05, ***=p≤0.005
(§2) Apoptosis was analyzed by the Caspase-Glo 3/7 activity assay (Promega) as described by the manufacturer. Briefly, cells were seeded in a 96 well plate and treated for 48h. Luminogenic caspase- 3/7 substrate containing a DEVD sequence was added and incubated for 1h. The luminescence was measured by a plate-reading luminometer.

[3] = test system: SKBR3 therapy sensitive cells; experiment: Mammosphere assay, therapy sensitive SKBR3 cells; conditions: 0.5 μM gefitinib or 0.1 μM lapatinib
Rac [4] = conditions: Tiam1/Rac inhibitor, most studies; cited from earlier work
HER2 = HER2 (Homo sapiens, UniProt P04626)
[5] = test system: SKBR3 lapatinib resistant (Lap.R) cells; experiment: MTT cell viability assay, lapatinib resistant SKBR3 variant; conditions: for decrease in cell viability: Lap.R SKBR3
[6] = test system: MDA-MB-435 HER2+ cells resistant to lapatinib and trastuzumab; experiment: MTT cell viability assay, therapy resistant MDA-MB-435 variant; type: cell-based; conditions: 48 h
[7] = test system: SKBR3 lapatinib resistant cells; experiment: Caspase-Glo 3/7 apoptosis assay, lapatinib resistant SKBR3 cells; type: cell-based, human
Procedure: as §1
(§3) FIG. 6A-6F. […] N=3±SEM *=p≤0.05, **=p≤0.01****=p≤0.001.
as §2

[8] = test system: Trastuzumab resistant SKBR3 variant; experiment: Caspase 3/7 apoptosis assay, Trastuzumab resistant SKBR3 variant; type: cell-based, human
[9] = test system: Trastuzumab resistant SKBR3 cells; experiment: MTT cell viability assay, Trastuzumab resistant SKBR3 variant; type: cell-based; conditions: Homo sapiens; for cytotoxicity at 0.25 µM: SK-BR-3
[10] = test system: gefitinib resistant SKBR3 variants; experiment: Cell phenotype of gefitinib resistant SKBR3 variants after Rac inhibitor; type: cell-based, human
Rac [11] = experiment: Effective concentration of Rac inhibitors; conditions: relative to NSC23766
[12] = test system: HER2+ and EGFR+breast cancer cells; experiment: Mammosphere forming efficiency with Rac inhibitors; type: cell-based
[13] = test system: SKBR3 therapy sensitive cells; experiment: MTT cell viability assay, therapy sensitive SKBR3 cells; type: cell-based, human; conditions: 5 and 10 μM, 24 h
From the text: as §3

[14] = test system: SKBR3 gefitinib resistant (Gef.R) cells; type: cell-based, human
[15] = MBQ-167 250 nM, Lapatinib resistant SKBR3

## COc1cc2ncnc(Nc3ccc(F)c(Cl)c3)c2cc1OCCCN1CCOCC1 [gefitinib]
[1]
  mammosphere formation: no significant effect on mammosphere formation
[2]
  apoptosis (caspase 3/7 activity): did not respond to gefitinib by apoptosis
[3]
  mammosphere formation: significant reduction in mammosphere formation

## CCN(CC)CCCC(C)Nc1nc(C)cc(Nc2ccc3nc(C)cc(N)c3c2)n1 (centres unmarked) [NSC23766]
Rac [4]
  active concentration: 50 to 100 µM

## CS(=O)(=O)CCNCc1ccc(-c2ccc3ncnc(Nc4ccc(OCc5cccc(F)c5)c(Cl)c4)c3c2)o1 [lapatinib]
HER2; sensitive SKBR3 cells, 24 h, 0.5 μM gefitinib, 0.1 μM lapatinib
  expression of total HER2: significantly elevated
HER2; variants resistant to gefitinib 0.1 μM and lapatinib 0.1 μM, each with its own drug
  pHER2 levels: decreased pEGFR and pHER2 levels
[1]
  mammosphere formation: no significant effect on mammosphere formation
[5]; Lap.R cells, lapatinib alone
  cell viability: did not affect the viability
[3]
  mammosphere formation: significant reduction in mammosphere formation
[6]; single agent
  sensitivity of cell viability: insensitive
[7]; lapatinib resistant variant in response to lapatinib
  caspase 3/7 activity: significant decrease in caspase 3/7 activity

## CCn1c2ccccc2c2cc(-n3nncc3-c3ccccc3)ccc21 (racemic) [MBQ-167]
[5]; 0.5 μM MBQ-167 alone
  decrease in cell viability: ~40%
[5]; 0.5 μM MBQ-167 in combination with 0.5 μM lapatinib
  decrease in cell viability: ~40%
[5]; [15]
  reduction of viability: 30%
[8]; MBQ-167 in the presence of Trastuzumab
  apoptosis (Caspase 3/7): only partially overcame this resistance to apoptosis
[8]; single agent, MBQ-167 at 250-750 nM
  apoptosis (Caspase 3/7): induced apoptosis
[9]; SK-BR-3, read-out: IC50 (cell viability)
  IC50: 100 nM
[9]; 96 and 120h, 250 nM MBQ-167, read-out: reduction of viability
  cytotoxicity at 0.25 µM: 90 to 100%
[9]; 72 h, saturated at 250 nM, read-out: decrease in viability
  cytotoxicity at 0.25 µM: 50%
[10]
  cell phenotype: cell rounding, detachment from the substrate, and subsequent death
Rac [11]
  effective concentration lower than NSC23766: 100 ×
[12]
  mammosphere forming efficiency (MFE): significantly reduce the MFE
[6]; MBQ-167 alone
  decrease in cell viability: ~40%
[6]; MBQ-167 in the presence of trastuzumab
  cell viability: inhibits MDA-MB-435 cell viability
[7]; MBQ-167 0.25 μM alone, Lap.R SKBR3
  increase in caspase 3/7 activity: > 2 fold
[7]; MBQ-167 0.25 μM in combination with lapatinib 0.5 μM, Lap.R SKBR3
  caspase activity: even higher significant increase in caspase activity
[7]; [15]
  apoptosis induction: 55%

## CCn1c2ccccc2c2cc(Nc3ccnc(NCCCN4CCOCC4)n3)ccc21 [EHop-016]
[5]; lapatinib resistant SKBR3, 5 and 10 μM, 24 h
  cell viability: statistically significant decrease in cell viability
[13]
  cell viability: statistically significant decrease in cell viability
Rac [11]
  effective concentration lower than NSC23766: 100 ×
[12]
  mammosphere forming efficiency (MFE): significantly reduce the MFE
[14]
  cell viability: statistically significant decrease in cell viability
